In patent US12697302B2, “Tricine and citric acid lipids” (Translate Bio, Inc., priority 2019, dated 2026):

System: firefly luciferase (FFL) production in the lung
Assay: Delivery of firefly luciferase (FFL) mRNA by intratracheal administration, IVIS imaging of luciferase production in the lung
Format: in vivo
Conditions: lipid nanoparticles with FFL mRNA, cationic lipid, DMG-PEG2000, cholesterol, DOPE; single intratracheal aerosol administration; male CD1 mice; 24 hours after administration
Procedure: Lipid nanoparticle formulations comprising FFL mRNA, cationic lipid, DMG-PEG2000, cholesterol and DOPE were administered to male CD1 mice (6-8 weeks old) by a single intratracheal aerosol administration via a Microsprayer® (50 ul/animal) while under anesthesia. At approximately 24 hours post-dose, the animals were dosed with luciferin at 150 mg/kg (60 mg/ml) by intraperitoneal injection at 2.5 ml/kg. After 5-15 minutes, all animals were imaged using an IVIS imaging system to measure luciferase production in the lung.

Row | Compound | in vivo protein (FFL) production in the lung / luciferase activity
1 | CCCCCCCCOC(=O)CC(CC(=O)OCCCCCCCC)(OC(=O)CCN(C)C)C(=O)OCCCCCCCC [Compound 1, trioctyl 2-((3-(dimethylamino)propanoyl)oxy) propane-1,2,3-tricarboxylate] | high levels
2 | CCCCCCCCCCCCCCOC(=O)CC(CC(=O)OCCCCCCCCCCCCCC)(OC(=O)CCN1CCCCC1)C(=O)OCCCCCCCCCCCCCC [Compound 16] | high levels
3 | CCCCCCCC(=O)OCC(COC(=O)CCCCCCC)(COC(=O)CCCCCCC)N(CC(=O)OCCN(C)C)C(=O)CCCCCCC [Compound 177, 2-(N-(2-(2-(dimethylamino)ethoxy)-2-oxoethyl)octanamido)-2-((octanoyloxy)methyl) propane-1,3-diyl dioctanoate] | high levels
4 | CCCCC/C=C\C/C=C\CCCCCCCCOC(=O)CC(CC(=O)OCCCCCCCC/C=C\C/C=C\CCCCC)(OC(=O)CCCN(C)C)C(=O)OCCCCCCCC/C=C\C/C=C\CCCCC [Compound 249] | high levels
